The values below come from patent publication US6664256B1, “Phenylpyridazine compounds and medicines containing the same” (Kowa Co., Ltd., priority 2000, dated 2003).

The structures appear in SMILES notation.

The subject of data set [1] is interleukin-1β production. Briefly: Inhibitory activity against interleukin-1β production (LPS-stimulated HL-60 cells, ELISA). Conditions: Homo sapiens, 72 h, lipopolysaccharide 10 μg/ml, culturing for 3 days, interleukin-1β determined by ELISA, read-out: IL-β (IC50 μM). It counts as cell-based. As to the method: Experiment 1 (Inhibitory Activity against Interleukin-1β Production)
Inhibitory activity of the compounds of the present invention, which are represented by the formula (I), against interleukin-1β production was tested by the following experiment:
HL-60 cells were cultured for 4 days until confluence on RPMI 1640 medium with 10% fetal bovine serum (FBS) added thereto. The medium was centrifuged. The supernatant was discarded, and the cells were then suspended at 1×10^6 cells/ml on RPMI 1640 medium with 3% FBS, and lipopolysaccharide was added to give a final concentration of 10 μg/ml . The culture was inoculated at 1 ml/well to a 24-well plate. A test compound was added at 1 μl/well, followed by culturing for 3 days. Three days later, the amount of interleukin-1β in each culture was determined by ELISA. Each IC50 value was determined by a comparison in yield with a control to which no test compound was added.
(In general: In an ELISA, binding on a coated surface is turned into a signal by an enzyme label.)

In the case of `COc1ccc(-c2cc(Cl)nnc2-c2ccc(OC)cc2)cc1` [Comp. Comp'd 1, reference compound], the IC50 (as a rule, the concentration that inhibits the measured activity by half) in data set [1] was determined as 32.1 µM.
Regarding `CCOC(=O)c1c(Cl)nnc(-c2ccc(OC)cc2)c1-c1ccc(OC)cc1` [Comp. Comp'd 2, reference compound], the IC50 in data set [1] was 4.16 µM.
The same measure, in the same setting: in the case of `COc1ccc(-c2cc(Oc3ccccc3)nnc2-c2ccc(OC)cc2)cc1` [Example 3, 3,4-bis(4-methoxyphenyl)-6-(phenoxy)pyridazine] it was 0.1 µM; in that of `COc1ccc(-c2cc(Oc3cccc(F)c3F)nnc2-c2ccc(OC)cc2)cc1` [Example 5, 3,4-bis(4-methoxyphenyl)-6-(2,3-difluorophenoxy)pyridazine], 0.12 µM.
Same read-out and setting: in the case of `COc1ccc(-c2cc(Oc3cc(F)ccc3F)nnc2-c2ccc(OC)cc2)cc1` [Example 7, 3,4-bis(4-methoxyphenyl)-6-(2,5-difluorophenoxy)pyridazine] it was 0.18 µM; in that of `COc1ccc(-c2cc(Oc3c(F)cccc3F)nnc2-c2ccc(OC)cc2)cc1` [Example 8, 3,4-bis(4-methoxyphenyl)-6-(2,6-difluorophenoxy)pyridazine], 0.35 µM.
For the molecule `COc1ccc(-c2cc(Oc3ccc(F)c(F)c3)nnc2-c2ccc(OC)cc2)cc1` [Example 9, 3,4-bis(4-methoxyphenyl)-6-(3,4-difluorophenoxy)pyridazine], the IC50 in data set [1] came out at 0.46 µM.
On the same count and under the same terms, the result for `COc1ccc(-c2cc(Oc3c(F)c(F)cc(F)c3F)nnc2-c2ccc(OC)cc2)cc1` [Example 11, 3,4-bis(4-methoxyphenyl)-6-(2,3,5,6-tetrafluorophenoxy)pyridazine] reads 0.19 µM.
Regarding `COc1ccc(-c2cc(Oc3c(F)c(F)c(F)c(F)c3F)nnc2-c2ccc(OC)cc2)cc1` [Example 12, 3,4-bis(4-methoxyphenyl)-6(2,3,4,5,6-pentafluorophenoxy)pyridazine], the IC50 in data set [1] is 0.04 µM.
On the same count and under the same terms, the result for `COc1ccc(-c2cc(Sc3cc(Cl)c(Cl)c(Cl)c3)nnc2-c2ccc(OC)cc2)cc1` [Example 14, 3,4-bis(4-methoxyphenyl)-6-(3,4,5-trichlorophenylthio)pyridazine] reads 0.2 µM.
`COc1ccc(Oc2cc(-c3ccc(OC)cc3)c(-c3ccc(OC)cc3)nn2)cc1` [Example 15, 3,4-bis(4-methoxyphenyl)-6-(4-methoxyphenoxy)pyridazine]: the half-inhibitory concentration (IC50) in data set [1] amounted to 0.45 µM.
On the same count and under the same terms, in the case of `COc1ccc(-c2cc(Oc3ccc([N+](=O)[O-])cc3)nnc2-c2ccc(OC)cc2)cc1` [Example 17, 3,4-bis(4-methoxyphenyl)-6-(4-nitrophenoxy)pyridazine] it was 0.63 µM.
Still for that read-out and setting: in the case of `COc1ccc(-c2cc(Oc3ccccc3C#N)nnc2-c2ccc(OC)cc2)cc1` [Example 18, 3,4-bis(4-methoxyphenyl)-6-(2-cyanophenoxy)pyridazine] it was 0.15 µM; in that of `COc1ccc(-c2cc(Oc3cccc(C#N)c3)nnc2-c2ccc(OC)cc2)cc1` [Example 19, 3,4-bis(4-methoxyphenyl)-6-(3-cyanophenoxy)pyridazine], 0.16 µM.
The same measure, in the same setting: the result for `COc1ccc(-c2nnc(Oc3ccc(F)cc3F)cc2-c2ccncc2)cc1` [Example 23, 6-(2,4-difluorophenoxy)-3-(4-methoxyphenyl)-4-(4-pyridyl)pyridazine] reads 0.96 µM.
For the molecule `COc1ccc(-c2nnc(Oc3cccc(F)c3F)cc2-c2ccccc2)cc1` [Example 25, 6-(2,3-difluorophenoxy)-3-(4-methoxyphenyl)-4-phenylpyridazine], the melting point (as a rule, the temperature, or range, at which the solid turns liquid) lay in the range of 155.2 to 156.6 °C. Moreover, the IC50 in data set [1] worked out at 0.32 µM.
`COc1ccc(-c2nnc(Oc3ccc(F)cc3F)cc2-c2ccccc2)cc1` [Example 26, 6-(2,4-difluorophenoxy)-3-(4-methoxyphenyl)-4-phenylpyridazine]: the melting point fell in the range of 169 to 169.9 °C. Moreover, the IC50 in data set [1] turned out to be 0.31 µM.
On to `COc1ccc(-c2nnc(Oc3c(F)c(F)c(F)c(F)c3F)cc2-c2ccccc2)cc1` [Example 27, 3-(4-methoxyphenyl)-6-(2,3,4,5,6-pentafluorophenoxy)-4-phenylpyridazine], for which the 50% inhibitory concentration (IC50) in data set [1] was 0.01 µM.
As for `CSc1ccc(-c2nnc(Cl)cc2-c2ccc(F)cc2)cc1` [Example 28, 6-chloro-4-(4-fluorophenyl)-3-[4-(methylthio)phenyl]pyridazine], the melting point lay within 130.9 to 131.4 °C.
As to `CSc1ccc(-c2nnc(Oc3ccc(F)cc3F)cc2-c2ccc(F)cc2)cc1` [Example 29, 6-(2,4-difluorophenoxy)-4-(4-fluorophenyl)-3-[4-(methylthio)phenyl]pyridazine], the melting point was 140.6 to 143.4 °C.
The same measure, in the same setting: the result for `CSc1ccc(-c2nnc(Cl)cc2-c2ccc(Cl)cc2)cc1` [Example 31, 6-chloro-4-(4-chlorophenyl)-3-[4-(methylthio)phenyl]pyridazine] reads 145 to 145.8 °C.
Molecule `CSc1ccc(-c2nnc(Sc3ccccc3)cc2-c2ccc(Sc3ccccc3)cc2)cc1` [Example 32, 3-[4-(methylthio)phenyl]-6-phenylthio-4-[4-(phenylthio)phenyl]pyridazine] displayed a melting point of 53.3 to 56.2 °C. Besides, in data set [1], the IC50 was 0.94 µM.
In turn, `CSc1ccc(-c2nnc(Oc3ccc(F)cc3F)cc2-c2ccc(Cl)cc2)cc1` [Example 33, 4-(4-chlorophenyl)-6-(2,4-difluorophenoxy)-3-[4-(methylthio)phenyl]pyridazine] yielded a melting point of 163.2 to 164 °C. The IC50 in data set [1] was determined as 0.26 µM.
For `CS(=O)(=O)c1ccc(-c2nnc(Oc3ccc(F)cc3F)cc2-c2ccc(Cl)cc2)cc1` [Example 34, 4-(4-chlorophenyl)-6-(2,4-difluorophenoxy)-3-[4-(methylsulfonyl)phenyl]pyridazine], the melting point was 115.2 to 117.3 °C.
Still for that read-out and setting: in the case of `COc1ccc(-c2cc(NCc3ccccc3)nnc2-c2ccc(OC)cc2)cc1` [Example 41, 6-benzylamino-3,4-bis(4-methoxyphenyl)pyridazine] it was 125.4 to 126.3 °C.
In the case of `CSc1ccc(-c2nnc(SC)cc2-c2ccc(F)cc2)cc1` [Example 46, 4-(4-fluorophenyl)-6-methylthio-3-[4-(methylthio)phenyl]pyridazine], the melting point was in the range of 165.8 to 169.5 °C.
Molecule `Cc1cc(-c2ccc(Cl)cc2)c(-c2ccc(S(C)(=O)=O)cc2)nn1` [Example 50, 4-(4-chlorophenyl)-6-methyl-3-[4-(methylsulfonyl)phenyl]pyridazine] showed a melting point of 205 to 209 °C.
Turning to `COc1ccc(-c2cc(C#N)nnc2-c2ccc(OC)cc2)cc1` [Example 51, 3,4-bis-(4-methoxyphenyl)-6-cyanopyridazine], in data set [1], the IC50 stood at 0.09 µM.
In the case of `CSc1ccc(-c2nnc(Cl)cc2-c2ccccc2)cc1` [Example 59, 6-chloro-3-[4-(methylthio)phenyl]-4-phenylpyridazine], the melting point is 157.7 to 158.3 °C.
Still for that read-out and setting: the result for `CS(=O)(=O)c1ccc(-c2nnc(Cl)cc2-c2ccc(Cl)cc2)cc1` [Example 60, 6-chloro-4-(4-chlorophenyl)-3-[4-(methylsulfonyl)phenyl]pyridazine] reads 189.6 to 190.5 °C.
In the case of `COc1ccc(-c2nnc(C#N)cc2-c2ccccc2)cc1` [Example 66, 6-cyano-3-(4-methoxyphenyl)-4-phenylpyridazine], the IC50 in data set [1] worked out at 0.68 µM.
